Reference: ChEMBL document CHEMBL5678810

Legend:
[1] = molecular target: Leucine-rich repeat serine/threonine-protein kinase 2 (Homo sapiens) (UniProt Q5S007); assay: Inhibition of T7 bacteriophage fused human LRRK2 at 10 uM by KINOMEscan analysis relative to control; values are per cent of control
[2] = molecular target: Mitogen-activated protein kinase kinase kinase 4 (Homo sapiens) (UniProt Q9Y6R4); assay: Inhibition of T7 bacteriophage fused human MAP3K4 at 10 uM by KINOMEscan analysis relative to control
[3] = molecular target: Mast/stem cell growth factor receptor Kit (Homo sapiens) (UniProt P10721); assay: Inhibition of T7 bacteriophage fused human KIT at 10 uM by KINOMEscan analysis relative to control
[4] = test system: Epidermal growth factor receptor (Homo sapiens), P00533 [UNDEFINED MUTATION]; assay: Inhibition of T7 bacteriophage fused human EGFR L747/S752del/P753S mutant at 10 uM by KINOMEscan analysis relative to control; values are per cent of control
Sequence of Epidermal growth factor receptor (Homo sapiens), P00533 [UNDEFINED MUTATION] (P00533 whole entry, looked up, stated change not applied, the tested form may be a part): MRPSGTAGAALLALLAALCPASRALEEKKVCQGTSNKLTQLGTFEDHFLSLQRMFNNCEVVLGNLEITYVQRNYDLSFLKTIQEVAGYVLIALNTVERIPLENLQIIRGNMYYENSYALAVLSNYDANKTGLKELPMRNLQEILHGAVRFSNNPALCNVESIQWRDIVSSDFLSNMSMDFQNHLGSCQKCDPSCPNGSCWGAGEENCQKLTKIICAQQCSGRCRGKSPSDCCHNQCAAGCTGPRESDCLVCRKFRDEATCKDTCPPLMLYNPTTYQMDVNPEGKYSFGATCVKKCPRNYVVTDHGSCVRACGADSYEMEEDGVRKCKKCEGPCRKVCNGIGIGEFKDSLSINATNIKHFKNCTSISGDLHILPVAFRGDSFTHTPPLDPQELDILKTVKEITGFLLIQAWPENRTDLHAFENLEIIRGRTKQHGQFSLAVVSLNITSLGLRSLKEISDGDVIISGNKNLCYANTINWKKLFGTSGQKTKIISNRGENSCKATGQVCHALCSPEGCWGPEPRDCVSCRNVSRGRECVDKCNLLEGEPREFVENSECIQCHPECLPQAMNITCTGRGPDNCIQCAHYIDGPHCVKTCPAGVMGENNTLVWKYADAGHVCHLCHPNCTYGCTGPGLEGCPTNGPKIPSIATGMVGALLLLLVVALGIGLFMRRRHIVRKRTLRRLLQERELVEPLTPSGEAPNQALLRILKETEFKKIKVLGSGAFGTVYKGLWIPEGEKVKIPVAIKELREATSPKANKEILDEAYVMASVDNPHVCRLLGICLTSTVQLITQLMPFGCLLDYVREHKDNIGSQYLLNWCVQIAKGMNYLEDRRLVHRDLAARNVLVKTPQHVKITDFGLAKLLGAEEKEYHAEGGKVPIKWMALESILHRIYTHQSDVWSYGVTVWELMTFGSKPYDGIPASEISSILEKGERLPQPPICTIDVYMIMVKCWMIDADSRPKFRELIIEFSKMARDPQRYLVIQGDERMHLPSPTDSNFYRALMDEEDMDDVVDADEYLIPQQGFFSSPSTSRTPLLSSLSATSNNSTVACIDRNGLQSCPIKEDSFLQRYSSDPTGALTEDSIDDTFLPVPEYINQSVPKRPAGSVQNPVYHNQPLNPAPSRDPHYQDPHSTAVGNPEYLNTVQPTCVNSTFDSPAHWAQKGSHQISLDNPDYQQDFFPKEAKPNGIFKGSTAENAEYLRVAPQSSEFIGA

[5] = molecular target: Cyclin-dependent kinase 4/cyclin D1 (Homo sapiens) (UniProt P11802+P24385); assay: Inhibition of T7 bacteriophage fused human CDK4-cyclinD1 at 10 uM by KINOMEscan analysis relative to control; type: protein-complex assay
[6] = molecular target: Non-receptor tyrosine-protein kinase TNK1 (Homo sapiens) (UniProt Q13470); assay: Inhibition of T7 bacteriophage fused human TNK1 at 10 uM by KINOMEscan analysis relative to control
[7] = test system: Hepatocyte growth factor receptor (Homo sapiens), P08581 [Y1235D]; assay: Inhibition of T7 bacteriophage fused human MET Y1235D mutant at 10 uM by KINOMEscan analysis relative to control
[8] = molecular target: Insulin-like growth factor 1 receptor (Homo sapiens) (UniProt P08069); assay: Inhibition of T7 bacteriophage fused human IGF1R at 10 uM by KINOMEscan analysis relative to control; values are per cent of control
[9] = molecular target: Serine/threonine-protein kinase B-raf (Homo sapiens) (UniProt P15056); assay: Inhibition of T7 bacteriophage fused human BRAF at 10 uM by KINOMEscan analysis relative to control
[10] = test system: Tyrosine-protein kinase ABL1 (Homo sapiens), P00519 [E255K]; assay: Inhibition of T7 bacteriophage fused human phosphorylated ABL1 E255K mutant at 10 uM by KINOMEscan analysis relative to control
[11] = molecular target: Rhodopsin kinase GRK1 (Homo sapiens) (UniProt Q15835); assay: Inhibition of T7 bacteriophage fused human GRK1 at 10 uM by KINOMEscan analysis relative to control; values are per cent of control
[12] = molecular target: Ephrin type-B receptor 4 (Homo sapiens) (UniProt P54760); assay: Inhibition of T7 bacteriophage fused human EPHB4 at 10 uM by KINOMEscan analysis relative to control
[13] = molecular target: Serine/threonine-protein kinase 25 (Homo sapiens) (UniProt O00506); assay: Inhibition of T7 bacteriophage fused human YSK1 at 10 uM by KINOMEscan analysis relative to control
Sequence of Serine/threonine-protein kinase 25 (Homo sapiens) (O00506 whole entry, looked up, the tested form may be a part): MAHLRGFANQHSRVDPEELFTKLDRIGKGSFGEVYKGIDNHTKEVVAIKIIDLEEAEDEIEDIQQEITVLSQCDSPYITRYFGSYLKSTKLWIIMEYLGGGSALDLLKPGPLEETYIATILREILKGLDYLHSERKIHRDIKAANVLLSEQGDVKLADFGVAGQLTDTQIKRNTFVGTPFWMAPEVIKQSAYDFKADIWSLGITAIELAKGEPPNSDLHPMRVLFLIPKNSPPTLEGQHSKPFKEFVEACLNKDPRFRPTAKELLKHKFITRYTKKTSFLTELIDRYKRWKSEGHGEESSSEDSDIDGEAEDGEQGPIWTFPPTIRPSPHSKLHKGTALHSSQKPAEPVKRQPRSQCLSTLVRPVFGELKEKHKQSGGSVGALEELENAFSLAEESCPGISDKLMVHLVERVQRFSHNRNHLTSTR

[14] = molecular target: Cyclin-dependent kinase 17 (Homo sapiens) (UniProt Q00537); assay: Inhibition of T7 bacteriophage fused human PCTK2 at 10 uM by KINOMEscan analysis relative to control
[15] = molecular target: Death-associated protein kinase 1 (Homo sapiens) (UniProt P53355); assay: Inhibition of T7 bacteriophage fused human DAPK1 at 10 uM by KINOMEscan analysis relative to control; values are per cent of control
[16] = molecular target: Vascular endothelial growth factor receptor 1 (Homo sapiens) (UniProt P17948); assay: Inhibition of T7 bacteriophage fused human FLT1 at 10 uM by KINOMEscan analysis relative to control
[17] = test system: Tyrosine-protein kinase ABL1 (Homo sapiens), P00519 [M351T]; assay: Inhibition of T7 bacteriophage fused human phosphorylated ABL1 M351T mutant at 10 uM by KINOMEscan analysis relative to control
[18] = molecular target: Dual specificity tyrosine-phosphorylation-regulated kinase 2 (Homo sapiens) (UniProt Q92630); assay: Inhibition of T7 bacteriophage fused human DYRK2 at 10 uM by KINOMEscan analysis relative to control; values are per cent of control
[19] = molecular target: Serine/threonine-protein kinase Chk1 (Homo sapiens) (UniProt O14757); assay: Inhibition of T7 bacteriophage fused human CHEK1 at 10 uM by KINOMEscan analysis relative to control
[20] = molecular target: Cyclin-dependent kinase 5 (Homo sapiens) (UniProt Q00535); assay: Inhibition of T7 bacteriophage fused human CDK5 at 10 uM by KINOMEscan analysis relative to control
[21] = molecular target: Platelet-derived growth factor receptor beta (Homo sapiens) (UniProt P09619); assay: Inhibition of T7 bacteriophage fused human PDGFRB at 10 uM by KINOMEscan analysis relative to control
Sequence of Platelet-derived growth factor receptor beta (Homo sapiens) (P09619 whole entry, the tested form may be a part): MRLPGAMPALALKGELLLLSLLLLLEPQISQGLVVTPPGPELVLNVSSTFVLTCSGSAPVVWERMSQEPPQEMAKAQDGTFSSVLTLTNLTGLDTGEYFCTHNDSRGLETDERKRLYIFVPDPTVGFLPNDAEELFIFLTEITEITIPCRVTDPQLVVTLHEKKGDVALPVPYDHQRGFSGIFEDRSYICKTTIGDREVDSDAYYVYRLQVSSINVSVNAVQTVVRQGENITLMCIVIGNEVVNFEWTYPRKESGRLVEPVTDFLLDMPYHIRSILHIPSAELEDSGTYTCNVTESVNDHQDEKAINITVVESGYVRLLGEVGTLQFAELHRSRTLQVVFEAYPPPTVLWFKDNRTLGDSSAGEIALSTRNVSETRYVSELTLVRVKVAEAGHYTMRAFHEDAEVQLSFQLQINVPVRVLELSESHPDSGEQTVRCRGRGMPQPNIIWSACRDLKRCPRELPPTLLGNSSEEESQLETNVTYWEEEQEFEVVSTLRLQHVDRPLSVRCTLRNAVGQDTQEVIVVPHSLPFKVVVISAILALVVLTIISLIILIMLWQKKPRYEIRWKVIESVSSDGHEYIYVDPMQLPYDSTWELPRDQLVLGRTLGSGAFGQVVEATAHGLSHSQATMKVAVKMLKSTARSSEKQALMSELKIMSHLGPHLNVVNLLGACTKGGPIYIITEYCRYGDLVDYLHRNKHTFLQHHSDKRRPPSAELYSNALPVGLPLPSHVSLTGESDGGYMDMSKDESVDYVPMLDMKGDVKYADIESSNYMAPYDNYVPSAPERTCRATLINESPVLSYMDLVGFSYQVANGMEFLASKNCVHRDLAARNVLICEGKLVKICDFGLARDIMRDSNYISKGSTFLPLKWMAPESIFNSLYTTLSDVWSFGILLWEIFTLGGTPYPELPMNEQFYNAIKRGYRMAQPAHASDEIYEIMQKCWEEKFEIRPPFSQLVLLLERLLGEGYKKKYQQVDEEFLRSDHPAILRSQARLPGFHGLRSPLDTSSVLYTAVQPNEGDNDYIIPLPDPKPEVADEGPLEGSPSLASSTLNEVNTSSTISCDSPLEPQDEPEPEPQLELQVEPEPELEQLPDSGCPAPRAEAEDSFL

[22] = molecular target: Serine/threonine-protein kinase LATS1 (Homo sapiens) (UniProt O95835); assay: Inhibition of T7 bacteriophage fused human LATS1 at 10 uM by KINOMEscan analysis relative to control
[23] = molecular target: Vascular endothelial growth factor receptor 3 (Homo sapiens) (UniProt P35916); assay: Inhibition of T7 bacteriophage fused human FLT4 at 10 uM by KINOMEscan analysis relative to control
[24] = test system: Proto-oncogene tyrosine-protein kinase receptor Ret (Homo sapiens), P07949 [V804L]; assay: Inhibition of T7 bacteriophage fused human RET V804L mutant at 10 uM by KINOMEscan analysis relative to control
Sequence of Proto-oncogene tyrosine-protein kinase receptor Ret (Homo sapiens), P07949 [V804L] (P07949 whole entry V804L, the tested form may be a part): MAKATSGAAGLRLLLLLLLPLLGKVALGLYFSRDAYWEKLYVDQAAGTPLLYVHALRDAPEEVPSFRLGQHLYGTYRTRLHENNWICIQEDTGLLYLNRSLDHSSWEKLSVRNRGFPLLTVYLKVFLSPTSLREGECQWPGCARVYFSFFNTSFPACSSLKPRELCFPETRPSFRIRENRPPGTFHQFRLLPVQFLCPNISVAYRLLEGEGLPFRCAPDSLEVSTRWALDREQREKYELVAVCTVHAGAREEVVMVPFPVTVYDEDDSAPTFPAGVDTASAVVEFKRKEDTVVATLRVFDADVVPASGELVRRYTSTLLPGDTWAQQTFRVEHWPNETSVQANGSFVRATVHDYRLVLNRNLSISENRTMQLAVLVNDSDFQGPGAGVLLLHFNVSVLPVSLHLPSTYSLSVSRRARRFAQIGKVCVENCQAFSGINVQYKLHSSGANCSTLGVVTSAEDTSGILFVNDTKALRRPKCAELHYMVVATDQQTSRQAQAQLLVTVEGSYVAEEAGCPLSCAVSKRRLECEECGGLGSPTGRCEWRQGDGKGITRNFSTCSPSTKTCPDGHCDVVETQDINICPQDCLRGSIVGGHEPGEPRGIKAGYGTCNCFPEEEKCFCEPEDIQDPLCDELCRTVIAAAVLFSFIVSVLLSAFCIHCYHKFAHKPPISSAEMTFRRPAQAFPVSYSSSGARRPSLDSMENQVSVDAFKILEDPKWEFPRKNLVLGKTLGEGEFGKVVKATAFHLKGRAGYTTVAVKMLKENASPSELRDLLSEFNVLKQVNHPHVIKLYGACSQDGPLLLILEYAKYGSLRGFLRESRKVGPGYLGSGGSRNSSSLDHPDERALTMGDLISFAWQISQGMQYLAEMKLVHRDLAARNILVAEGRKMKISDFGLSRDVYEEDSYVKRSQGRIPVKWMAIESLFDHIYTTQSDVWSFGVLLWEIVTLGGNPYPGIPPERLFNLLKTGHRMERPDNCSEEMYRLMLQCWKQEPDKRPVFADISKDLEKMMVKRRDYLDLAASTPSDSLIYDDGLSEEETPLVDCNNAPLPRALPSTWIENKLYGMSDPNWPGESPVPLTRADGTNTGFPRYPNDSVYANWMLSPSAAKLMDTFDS

[25] = molecular target: Ephrin type-A receptor 3 (Homo sapiens) (UniProt P29320); assay: Inhibition of T7 bacteriophage fused human EPHA3 at 10 uM by KINOMEscan analysis relative to control
[26] = molecular target: Calcium/calmodulin-dependent protein kinase type 1 (Homo sapiens) (UniProt Q14012); assay: Inhibition of T7 bacteriophage fused human CAMK1 at 10 uM by KINOMEscan analysis relative to control
[27] = molecular target: Serine/threonine-protein kinase Nek3 (Homo sapiens) (UniProt P51956); assay: Inhibition of T7 bacteriophage fused human NEK3 at 10 uM by KINOMEscan analysis relative to control
Sequence of Serine/threonine-protein kinase Nek3 (Homo sapiens) (P51956 whole entry, the tested form may be a part): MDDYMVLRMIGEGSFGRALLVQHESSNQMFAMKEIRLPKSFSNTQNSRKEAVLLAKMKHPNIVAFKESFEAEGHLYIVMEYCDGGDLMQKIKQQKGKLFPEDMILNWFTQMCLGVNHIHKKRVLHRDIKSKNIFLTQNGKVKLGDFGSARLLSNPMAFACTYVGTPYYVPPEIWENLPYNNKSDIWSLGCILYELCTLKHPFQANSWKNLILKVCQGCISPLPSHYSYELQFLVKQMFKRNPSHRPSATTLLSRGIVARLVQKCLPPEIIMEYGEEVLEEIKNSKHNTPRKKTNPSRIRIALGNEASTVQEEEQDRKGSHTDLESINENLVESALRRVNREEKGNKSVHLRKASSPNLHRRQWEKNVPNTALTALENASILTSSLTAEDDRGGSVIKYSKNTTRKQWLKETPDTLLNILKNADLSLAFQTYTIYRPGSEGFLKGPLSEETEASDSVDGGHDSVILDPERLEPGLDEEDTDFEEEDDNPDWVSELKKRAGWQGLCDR

[28] = molecular target: Protein-tyrosine kinase 2-beta (Homo sapiens) (UniProt Q14289); assay: Inhibition of T7 bacteriophage fused human PYK2 at 10 uM by KINOMEscan analysis relative to control
[29] = molecular target: Cyclin-dependent kinase 18 (Homo sapiens) (UniProt Q07002); assay: Inhibition of T7 bacteriophage fused human PCTK3 at 10 uM by KINOMEscan analysis relative to control
Sequence of Cyclin-dependent kinase 18 (Homo sapiens) (Q07002 whole entry, the tested form may be a part): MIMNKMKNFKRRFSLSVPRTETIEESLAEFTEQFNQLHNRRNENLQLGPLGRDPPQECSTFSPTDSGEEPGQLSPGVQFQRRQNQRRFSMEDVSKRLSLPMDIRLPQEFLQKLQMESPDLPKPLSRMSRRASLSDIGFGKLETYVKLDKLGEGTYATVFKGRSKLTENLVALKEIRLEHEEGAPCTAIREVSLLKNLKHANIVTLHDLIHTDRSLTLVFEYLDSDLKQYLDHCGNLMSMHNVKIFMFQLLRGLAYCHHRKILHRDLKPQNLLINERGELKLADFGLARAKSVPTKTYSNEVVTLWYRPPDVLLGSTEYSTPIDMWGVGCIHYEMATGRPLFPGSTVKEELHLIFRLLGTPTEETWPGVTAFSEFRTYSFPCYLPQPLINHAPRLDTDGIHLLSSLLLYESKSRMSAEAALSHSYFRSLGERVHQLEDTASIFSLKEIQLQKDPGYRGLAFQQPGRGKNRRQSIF

[30] = molecular target: Casein kinase II subunit alpha (Homo sapiens) (UniProt P68400); assay: Inhibition of T7 bacteriophage fused human CSNK2A1 at 10 uM by KINOMEscan analysis relative to control
[31] = molecular target: Ribosomal protein S6 kinase alpha-1 (Homo sapiens) (UniProt Q15418); assay: Inhibition of RSK1 domain1 Activation Loop labeling site in human HEL cell lysate at 10 uM by KiNativ profiling analysis relative to control; type: subcellular

`COc1cc(N2CCC(N3CCN(C)CC3)CC2)ccc1Nc1ncc2c(n1)N(C)c1ccccc1C(=O)N2C` gave a residual activity [1] of 0%, an inhibition [2] of 100% and an inhibition [3] of 100%. It also gave a residual activity [4] of 84%, an inhibition [5] of 100% and an inhibition [6] of 2.8%. It also gave an inhibition [7] of 100%, a residual activity [8] of 96% and an inhibition [9] of 81%. For the same molecule, the inhibition [10] was 80%, the residual activity [11] was 91% and the inhibition [12] was 100%. The inhibition [13] was 68%, the inhibition [14] was 83% and the residual activity [15] was 73%. It also gave an inhibition [16] of 100%, an inhibition [17] of 94% and a residual activity [18] of 76%. It also gave an inhibition [19] of 100%, an inhibition [20] of 81% and an inhibition [21] of 100%. It also gave an inhibition [22] of 100%, an inhibition [23] of 100% and an inhibition [24] of 89%. The inhibition [25] was 100%, the inhibition [26] was 55% and the inhibition [27] was 100%. It also gave an inhibition [28] of 78%, an inhibition [29] of 100% and an inhibition [30] of 100%.

In the case of `COc1cc(C(=O)N2CCC(N3CCN(C)CC3)CC2)ccc1Nc1ncc2c(n1)N(C1CCCC1)c1ccccc1C(=O)N2C`, the inhibition [31] was 0.2%.
